{
  "source": "patent US8247211B2",
  "about": "“Glycopeptide antibiotics” (American Cyanamid Company, priority 2001, dated 2012)",
  "assay_in_all_cases": "In vitro antibacterial evaluation: minimum inhibitory concentration (MIC), broth dilution method",
  "type_in_all_cases": "cell-based",
  "details_in_all_cases": "18 hours at 35° C.",
  "key": {"Streptococcus sp.": {"system": "Streptococcus sp.", "outline": "(§1)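 NCCLS M7-A2 broth dilution; Muller-Hinton II […]; 5×10^5 CFU/mL; 64-0.06 μg/mL. MIC = lowest concentration with no growth.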"}, "Enterococcus sp.": {"system": "Enterococcus sp.", "outline": "as §1"}, "Staphylococcus sp.": {"system": "Staphylococcus sp.", "outline": "as §1"}, "Escherichia coli": {"system": "Escherichia coli", "outline": "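Inoculum: 5×10^5 CFU/mL. Range: 64-0.06 μg/mL. Medium: Muller-Hinton II […]; NCCLS M7-A2 broth dilution. Endpoint: lowest concentration inhibiting growth. Strains include methicillin-, penicillin- and/or vancomycin-resistant clinical isolates.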"}},
  "data": [
    {"substance": "α-O-[(Dodecylanaino)carbonyl]-cyclo[glycyl-β-methylphenylalanyl-O-(4-O-hexopyranosylhexopyranosyl)tyrosyl-3-(2-iminoimidazolidin-4-yl)seryl-3-(3-hexopyranosyl-2-iminoimidazoliclin-4-yl)serylseryl] [Example 254]", "values": [
      {"measurement": "MIC Streptococcus agalactiae (GC 4564)", "setting": "Streptococcus sp.; Streptococcus agalactiae (GC 4564)", "value": 4, "unit": "µg/mL"},
      {"measurement": "MIC Streptococcus pneumoniae (GC 4565)", "setting": "Streptococcus sp.; Streptococcus pneumoniae (GC 4565)", "value": 16, "unit": "µg/mL"},
      {"measurement": "MIC Streptococcus pyogenes (ID-3187)", "setting": "Streptococcus sp.; Streptococcus pyogenes (ID-3187)", "value": 8, "unit": "µg/mL"},
      {"measurement": "MIC Streptococcus agalactiae (GC 4564)", "setting": "Streptococcus sp.; broth dilution, strain GC 4564", "value": 4, "unit": "µg/mL"},
      {"measurement": "MIC Streptococcus pneumoniae (GC 4565)", "setting": "Streptococcus sp.; broth dilution, strain GC 4565", "value": 16, "unit": "µg/mL"},
      {"measurement": "MIC Streptococcus pyogenes (ID-3187)", "setting": "Streptococcus sp.; broth dilution, strain ID-3187", "value": 8, "unit": "µg/mL"},
      {"measurement": "MIC Enterococcus avium (GC 4558)", "setting": "Enterococcus sp.; Enterococcus avium (GC 4558)", "value": 4, "unit": "µg/mL"},
      {"measurement": "MIC Enterococcus faecalis (ATCC 29212)", "setting": "Enterococcus sp.; Enterococcus faecalis (ATCC 29212)", "value": 8, "unit": "µg/mL"},
      {"measurement": "MIC Enterococcus faecalis (GC 2242)", "setting": "Enterococcus sp.; Enterococcus faecalis (GC 2242)", "value": 8, "unit": "µg/mL"},
      {"measurement": "MIC Enterococcus faecalis (GC 4552)", "setting": "Enterococcus sp.; Enterococcus faecalis (GC 4552)", "value": 8, "unit": "µg/mL"},
      {"measurement": "MIC Enterococcus faecalis (GC 4553)", "setting": "Enterococcus sp.; Enterococcus faecalis (GC 4553)", "value": 4, "unit": "µg/mL"},
      {"measurement": "MIC Enterococcus faecalis (GC 4554)", "setting": "Enterococcus sp.; Enterococcus faecalis (GC 4554)", "value": 8, "unit": "µg/mL"},
      {"measurement": "MIC Enterococcus faecium (GC 2243)", "setting": "Enterococcus sp.; Enterococcus faecium (GC 2243)", "value": 4, "unit": "µg/mL"},
      {"measurement": "MIC Enterococcus faecium (GC 4556)", "setting": "Enterococcus sp.; Enterococcus faecium (GC 4556)", "value": 8, "unit": "µg/mL"},
      {"measurement": "MIC Enterococcus faecium (GC 4557)", "setting": "Enterococcus sp.; Enterococcus faecium (GC 4557)", "value": 2, "unit": "µg/mL"},
      {"measurement": "MIC Enterococcus faecalis (ATCC 29212)", "setting": "Enterococcus sp.; broth dilution, strain ATCC 29212", "value": 8, "unit": "µg/mL"},
      {"measurement": "MIC Enterococcus faecalis (GC 2242)", "setting": "Enterococcus sp.; broth dilution, strain GC 2242", "value": 8, "unit": "µg/mL"},
      {"measurement": "MIC Enterococcus faecium (GC 2243)", "setting": "Enterococcus sp.; broth dilution, strain GC 2243", "value": 4, "unit": "µg/mL"},
      {"measurement": "MIC Enterococcus faecalis (GC 4552)", "setting": "Enterococcus sp.; broth dilution, strain GC 4552", "value": 8, "unit": "µg/mL"},
      {"measurement": "MIC Enterococcus faecalis (GC 4553)", "setting": "Enterococcus sp.; broth dilution, strain GC 4553", "value": 4, "unit": "µg/mL"},
      {"measurement": "MIC Enterococcus faecalis (GC 4554)", "setting": "Enterococcus sp.; broth dilution, strain GC 4554", "value": 8, "unit": "µg/mL"},
      {"measurement": "MIC Enterococcus faecium (GC 4556)", "setting": "Enterococcus sp.; broth dilution, strain GC 4556", "value": 8, "unit": "µg/mL"},
      {"measurement": "MIC Enterococcus faecium (GC 4557)", "setting": "Enterococcus sp.; broth dilution, strain GC 4557", "value": 2, "unit": "µg/mL"},
      {"measurement": "MIC Enterococcus avium (GC 4558)", "setting": "Enterococcus sp.; broth dilution, strain GC 4558", "value": 4, "unit": "µg/mL"},
      {"measurement": "MIC Coagulase Negative Staphylococcus (GC 4547)", "setting": "Staphylococcus sp.; Coagulase Negative Staphylococcus (GC 4547)", "value": 4, "unit": "µg/mL"},
      {"measurement": "MIC Coagulase Negative Staphylococcus (GC 4548)", "setting": "Staphylococcus sp.; Coagulase Negative Staphylococcus (GC 4548)", "value": 4, "unit": "µg/mL"},
      {"measurement": "MIC Coagulase Negative Staphylococcus (GC 4549)", "setting": "Staphylococcus sp.; Coagulase Negative Staphylococcus (GC 4549)", "value": 2, "unit": "µg/mL"},
      {"measurement": "MIC Coagulase Negative Staphylococcus (GC 4551)", "setting": "Staphylococcus sp.; Coagulase Negative Staphylococcus (GC 4551)", "value": 4, "unit": "µg/mL"},
      {"measurement": "MIC Coagulase Negative Staphylococcus (ID-3941)", "setting": "Staphylococcus sp.; Coagulase Negative Staphylococcus (ID-3941)", "value": 2, "unit": "µg/mL"},
      {"measurement": "MIC Staphylococcus aureus (ATCC 29213)", "setting": "Staphylococcus sp.; Staphylococcus aureus (ATCC 29213)", "value": 4, "unit": "µg/mL"},
      {"measurement": "MIC Staphylococcus aureus (GC 1131)", "setting": "Staphylococcus sp.; Staphylococcus aureus (GC 1131)", "value": 4, "unit": "µg/mL"},
      {"measurement": "MIC Staphylococcus aureus (GC 4541)", "setting": "Staphylococcus sp.; Staphylococcus aureus (GC 4541)", "value": 4, "unit": "µg/mL"},
      {"measurement": "MIC Staphylococcus aureus (GC 4542)", "setting": "Staphylococcus sp.; Staphylococcus aureus (GC 4542)", "value": 4, "unit": "µg/mL"},
      {"measurement": "MIC Staphylococcus aureus (GC 4544)", "setting": "Staphylococcus sp.; Staphylococcus aureus (GC 4544)", "value": 4, "unit": "µg/mL"},
      {"measurement": "MIC Staphylococcus aureus (GC 4545)", "setting": "Staphylococcus sp.; Staphylococcus aureus (GC 4545)", "value": 8, "unit": "µg/mL"},
      {"measurement": "MIC Staphylococcus aureus-SMITH (GC 4543)", "setting": "Staphylococcus sp.; Staphylococcus aureus-SMITH (GC 4543)", "value": 4, "unit": "µg/mL"},
      {"measurement": "MIC Staphylococcus haemolyticus (GC 4546)", "setting": "Staphylococcus sp.; Staphylococcus haemolyticus (GC 4546)", "value": 4, "unit": "µg/mL"},
      {"measurement": "MIC Staphylococcus aureus (ATCC 29213)", "setting": "Staphylococcus sp.; broth dilution, strain ATCC 29213", "value": 4, "unit": "µg/mL"},
      {"measurement": "MIC Staphylococcus aureus (GC 1131)", "setting": "Staphylococcus sp.; broth dilution, strain GC 1131", "value": 4, "unit": "µg/mL"},
      {"measurement": "MIC Staphylococcus aureus (GC 4541)", "setting": "Staphylococcus sp.; broth dilution, strain GC 4541", "value": 4, "unit": "µg/mL"},
      {"measurement": "MIC Staphylococcus aureus (GC 4542)", "setting": "Staphylococcus sp.; broth dilution, strain GC 4542", "value": 4, "unit": "µg/mL"},
      {"measurement": "MIC Staphylococcus aureus-SMITH (GC 4543)", "setting": "Staphylococcus sp.; broth dilution, strain GC 4543", "value": 4, "unit": "µg/mL"},
      {"measurement": "MIC Staphylococcus aureus (GC 4544)", "setting": "Staphylococcus sp.; broth dilution, strain GC 4544", "value": 4, "unit": "µg/mL"},
      {"measurement": "MIC Staphylococcus aureus (GC 4545)", "setting": "Staphylococcus sp.; broth dilution, strain GC 4545", "value": 8, "unit": "µg/mL"},
      {"measurement": "MIC Staphylococcus haemolyticus (GC 4546)", "setting": "Staphylococcus sp.; broth dilution, strain GC 4546", "value": 4, "unit": "µg/mL"},
      {"measurement": "MIC Coagulase Negative Staphylococcus (GC 4547)", "setting": "Staphylococcus sp.; broth dilution, strain GC 4547", "value": 4, "unit": "µg/mL"},
      {"measurement": "MIC Coagulase Negative Staphylococcus (GC 4548)", "setting": "Staphylococcus sp.; broth dilution, strain GC 4548", "value": 4, "unit": "µg/mL"},
      {"measurement": "MIC Coagulase Negative Staphylococcus (GC 4549)", "setting": "Staphylococcus sp.; broth dilution, strain GC 4549", "value": 2, "unit": "µg/mL"},
      {"measurement": "MIC Coagulase Negative Staphylococcus (GC 4551)", "setting": "Staphylococcus sp.; broth dilution, strain GC 4551", "value": 4, "unit": "µg/mL"},
      {"measurement": "MIC Coagulase Negative Staphylococcus (ID-3941)", "setting": "Staphylococcus sp.; broth dilution, strain ID-3941", "value": 2, "unit": "µg/mL"},
      {"measurement": "MIC Escherichia coli (ATCC 25922)", "setting": "Escherichia coli; Escherichia coli (ATCC 25922)", "value": 64, "unit": "µg/mL"},
      {"measurement": "MIC Escherichia coli (GC 4559)", "setting": "Escherichia coli; Escherichia coli (GC 4559)", "value": 8, "unit": "µg/mL"},
      {"measurement": "MIC Escherichia coli (GC 4560)", "setting": "Escherichia coli; Escherichia coli (GC 4560)", "value": 4, "unit": "µg/mL"}
    ]}
  ]
}
